Drawing on patent US9974856B2, “Method of treating androgen deficiency in women” (Parapharm Ltd., priority 2009, dated 2018), this text covers serum calcium value for one substance.

The test deals with human subject with diagnosed osteopenia. The test is described as follows: Mineral bone density (forearm scanner DXT-200) and serum calcium in a subject with osteopenia. It counts as in vivo. To be noted: after a one-month break in the administration, following six-month course of 1 g 3 times a day. The procedure: A human subject. The mineral bone density of T−1.4 was measured in the distal antibrachium by means of the forearm scanner DXT-200 available from Osteometer MediTech, Inc. Osteopenia was diagnosed and 1 g of calcium gluconate was administered 3 times a day. A six-month course of preventive medication was conducted. […] That is, the mineral bone density (MBD) became less. […] For reference: MBD normal value—the values of T criterion with a standard deviation of +1 to −1 from the peak bone mass; • 1st degree osteopenia—MBD of −1 to −1.5; • 2nd degree osteopenia—MBD of −1.5 to −2; • 3rd degree osteopenia—MBD of −2 to −2.5; • 1st degree osteoporosis—MBD of −2.5 and less without fractures; • 2nd degree osteoporosis—MBD of −2.5 and less with osteoporotic bone fractures. The densitometric T scale presents the number of standard deviations up and down an average bone mass value. The T criterion decreases in parallel with a gradual reduction in the bone mass with age and is used to evaluate the MBD in adults.
The same human subject with diagnosed osteopenia and the mineral bone density of T −1.6 was administered one capsule of the claimed biologically active food additive 3 times a day A six-month preventive medication course was conducted following the pattern of one-month administration/one-month break. The mineral bone density increased to T −1.2. The serum calcium value normalized. […]

As for calcium gluconate, the serum calcium value result is on record as “below the normal value”.
